Measured values: paper PMC12718081 (ACS Infectious Diseases, 2025)
Where “and” joins values, the source holds several entries; their conditions need not be identical. Identical values can stand only once. Entries after “also recorded” stand apart in the source; their conditions may differ. Like-named read-outs stand apart in the source and are kept apart here.

Legend:
S. mansoni schistosomula = test: Roboworm high-content screening assay on schistosomula (motility and phenotype scores); type: cell-based, Schistosoma mansoni; settings: 25 μM, 72 h
Procedure: All PZQ derivatives were synthesized in the racemic form and evaluated as such. The compounds were initially screened at 10 μM against S. mansoni schistosomula using the Roboworm high-content screening assay , and were declared hits or nonhits based on their effect on parasites’ motility and phenotype scores after 72 h of incubation. As none of the compounds were considered hits at this concentration, we performed a titration from 6.25 to 50 μM (Figure S27).
DMSO was included as a negative control. Compounds were considered hits if both their motility and phenotype scores were lower than −0.35 and −0.15, respectively (region delimited by the dashed lines). In red, PZQ analogues selected for further analysis.
For the collection of schistosomula, B. glabrata snails infected with S. mansoni were shed for 2 h under light at 26 °C. Cercariae were collected, mechanically transformed into schistosomula as previously described.
DMSO (0.625%, v/v) was included as a negative control. Z′ values for the assay were calculated to be 0.542 for phenotype and 0.361 for motility. […]
Auranofin (AUR) was included at 10 µM as positive control. DMSO was included as a negative control. Compounds were considered hits if both their motility and phenotype scores were lower than -0.35 and -0.15, respectively (region delimited by the […]

[1] = test system: juvenile schistosomes (21 days p.i.); test: XTT juvenile viability assay; type: cell-based, Schistosoma mansoni; settings: 100 μM, 48 h
[2] = test system: adult schistosomes (male and female worms); test: Adult worm ex vivo high-content image-based motility assay; type: cell-based, Schistosoma mansoni
Procedure: Adult schistosomes’ motility was determined using a high-content assay previously developed by our group, , with images analyzed in CellProfiler software. More details are provided in the Supporting Information.
(§1) Adult worm ex-vivo high-content assay
(§2) “Area” and “False Negative Rate” from the MeasureObjectSizeShape and MeasureObjectOverlap modules, respectively. These measurements were then modeled by a multilevel generalized linear statistical model. The effects of the experimental treatments on […]
(§3) The half-maximal inhibitory
(§4) Windows (GraphPad Software, Boston, MA, USA; www.graphpad.com). […]
with DMSO as a negative control.

in vitro = settings: human, HepG2 cytotoxicity (CC50)
Procedure: (§5) Next, we conducted a more detailed investigation by performing dose–response assays with each compound on HepG2 hepatic epithelial cells, as the liver is one of the major organs affected in intestinal schistosomiasis.
(§6) More details are provided in the Supporting Information.
as §1
(§7) Male and female worms were placed in 96-well microplates (one worm per well) and incubated […]
(§8) to 72 hours. Brightfield timelapse images (100 images, 0.3-second intervals) were captured from each well before, immediately after, and every 24 hours following compound addition using an ImageXpress Micro Confocal High Content System equipped with a 2x objective. Image analysis was performed through a custom pipeline in CellProfiler software (v. 4.2.1, Windows OS).57 During analysis, the area of each worm and its displacement between consecutive image captures (i.e., images taken at successive time points) were measured using the parameters “Area” and “False Negative Rate” from the MeasureObjectSizeShape and MeasureObjectOverlap modules, respectively. These measurements were then modeled by a multilevel generalized linear statistical model. The effects of the experimental treatments on parasite motility were estimated with the integrated nested Laplace approximation (INLA) method, available in the INLA package of R (https://www.r-inla.org). The half-maximal inhibitory concentration (EC50) of each compound was calculated based on the worms' estimated motility using the […] 4-parameter logistic equation in GraphPad Prism version 9.0.0 for Windows (GraphPad Software, Boston, MA, USA; www.graphpad.com). […]
(§9) either at a fixed concentration (10 µM) or across a range of concentrations (0.0001–300 µM), or with DMSO as a negative control. Two hours before the end of the experiment (t0), a resazurin solution (final concentration: 0.01 mg/mL) was added to each well and the first fluorescence […]
(§10) reader. At the end of the incubation (t1), a second reading was performed. The fluorescence attributed solely to resorufin was measured by subtracting the fluorescence readings at t0 from those at t1. The results were expressed as percentual cell viability considering negative control

[3] = test system: HepG2 hepatic epithelial cells; test: in vitro; settings: for Selectivity Index (CC50/EC50), Male: HepG2 CC50 / male worm motility EC50, 48 h
Procedure: as §5, §6, §1, §7, §8, §9, §10

Sm.TRPMPZQ (wild-type) = Sm.TRPMPZQ (wild-type) (Schistosoma mansoni, UniProt A0A5K4F0X5); test: Ca2+ reporter (FLIPR) activation assay, wild-type Sm.TRPMPZQ in HEK293 cells; type: cell-based
Sequence of Sm.TRPMPZQ (wild-type) (A0A5K4F0X5 entry or part of it): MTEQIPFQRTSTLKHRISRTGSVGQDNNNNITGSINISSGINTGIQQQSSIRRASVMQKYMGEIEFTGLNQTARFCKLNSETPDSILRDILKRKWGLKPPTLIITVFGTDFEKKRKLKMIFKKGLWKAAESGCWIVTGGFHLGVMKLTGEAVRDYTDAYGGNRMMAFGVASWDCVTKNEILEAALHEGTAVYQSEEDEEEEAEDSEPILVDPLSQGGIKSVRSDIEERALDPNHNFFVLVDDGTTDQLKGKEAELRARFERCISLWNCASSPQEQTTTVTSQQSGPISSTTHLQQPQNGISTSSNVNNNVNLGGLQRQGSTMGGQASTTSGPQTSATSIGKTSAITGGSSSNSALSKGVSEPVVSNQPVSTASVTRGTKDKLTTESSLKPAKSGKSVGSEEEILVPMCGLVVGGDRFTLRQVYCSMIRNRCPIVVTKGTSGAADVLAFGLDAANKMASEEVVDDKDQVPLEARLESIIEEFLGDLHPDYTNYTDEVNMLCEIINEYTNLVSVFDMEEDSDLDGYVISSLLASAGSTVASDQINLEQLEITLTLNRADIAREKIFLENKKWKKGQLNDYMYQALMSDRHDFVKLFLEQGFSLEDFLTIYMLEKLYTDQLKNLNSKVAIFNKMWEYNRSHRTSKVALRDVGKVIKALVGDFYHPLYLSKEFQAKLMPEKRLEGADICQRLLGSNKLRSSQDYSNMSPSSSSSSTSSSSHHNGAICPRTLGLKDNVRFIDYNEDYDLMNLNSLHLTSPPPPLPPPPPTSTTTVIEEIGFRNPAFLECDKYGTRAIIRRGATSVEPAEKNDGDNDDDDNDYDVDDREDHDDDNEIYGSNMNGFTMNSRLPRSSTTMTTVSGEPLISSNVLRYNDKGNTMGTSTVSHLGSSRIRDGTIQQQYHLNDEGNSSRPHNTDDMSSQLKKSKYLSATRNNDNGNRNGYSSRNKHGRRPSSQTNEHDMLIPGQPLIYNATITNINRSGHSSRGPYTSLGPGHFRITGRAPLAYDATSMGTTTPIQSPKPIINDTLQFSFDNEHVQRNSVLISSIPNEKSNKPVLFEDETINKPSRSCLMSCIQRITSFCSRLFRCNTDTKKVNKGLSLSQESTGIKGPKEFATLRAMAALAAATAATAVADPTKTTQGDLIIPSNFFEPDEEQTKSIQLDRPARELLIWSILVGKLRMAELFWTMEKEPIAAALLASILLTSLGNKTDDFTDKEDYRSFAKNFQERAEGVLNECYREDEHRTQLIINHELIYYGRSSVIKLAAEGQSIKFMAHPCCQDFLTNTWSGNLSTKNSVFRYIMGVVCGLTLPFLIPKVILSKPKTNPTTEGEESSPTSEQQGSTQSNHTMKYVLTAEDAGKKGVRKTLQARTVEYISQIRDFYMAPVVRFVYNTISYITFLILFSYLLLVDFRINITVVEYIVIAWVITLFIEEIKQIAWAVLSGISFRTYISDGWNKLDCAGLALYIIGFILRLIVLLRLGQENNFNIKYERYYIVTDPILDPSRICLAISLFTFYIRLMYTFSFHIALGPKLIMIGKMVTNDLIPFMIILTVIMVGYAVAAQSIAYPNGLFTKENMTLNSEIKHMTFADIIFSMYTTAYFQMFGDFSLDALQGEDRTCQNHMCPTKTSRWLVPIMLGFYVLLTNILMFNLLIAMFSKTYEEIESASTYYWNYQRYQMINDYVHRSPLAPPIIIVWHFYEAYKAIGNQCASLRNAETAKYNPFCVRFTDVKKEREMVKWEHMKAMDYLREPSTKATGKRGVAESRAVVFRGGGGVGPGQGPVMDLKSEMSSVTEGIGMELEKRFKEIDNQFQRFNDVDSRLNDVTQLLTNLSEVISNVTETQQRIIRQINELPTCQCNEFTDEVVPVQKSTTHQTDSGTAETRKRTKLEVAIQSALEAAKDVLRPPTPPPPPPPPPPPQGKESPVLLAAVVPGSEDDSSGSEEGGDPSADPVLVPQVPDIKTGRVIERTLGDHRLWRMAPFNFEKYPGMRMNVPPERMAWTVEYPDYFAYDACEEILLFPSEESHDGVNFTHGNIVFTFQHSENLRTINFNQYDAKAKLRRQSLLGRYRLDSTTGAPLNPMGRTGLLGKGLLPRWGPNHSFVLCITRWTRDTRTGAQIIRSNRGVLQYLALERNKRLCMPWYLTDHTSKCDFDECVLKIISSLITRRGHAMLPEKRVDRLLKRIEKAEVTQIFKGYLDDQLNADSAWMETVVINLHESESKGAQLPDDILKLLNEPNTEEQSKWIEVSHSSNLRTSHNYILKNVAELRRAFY
Procedure: (§11) The Ca^2+ reporter assay was performed using a Fluorescence Imaging Plate Reader (FLIPR) system, as described in the Supporting Information. […]
as §3, §4
(§12) with DMSO as a negative control. […]
(§13) reader. […] The fluorescence
(§14) Untransfected HEK293 cells were used as a control.
(§15) 10% fetal bovine serum (FBS). […]
(§16) atmosphere containing 5% CO₂. Following incubation, the growth medium was removed and […]
buffer containing 2.5 mM probenecid in HBSS (with Ca²⁺ and Mg²⁺), 20 mM HEPES, 0.3% BSA (Sigma, A7030), and 0.03% L-ascorbic acid (Sigma). Cells were incubated for 40 minutes at 37 °C and subsequently for 20 minutes at room temperature. […]
prepared in assay buffer without dye and probenecid and dispensed into separate flat-bottom 384-well plates. Calcium flux measurements were performed at room temperature using a […]
(§17) instrument (Molecular Devices). Baseline fluorescence was recorded for 20 seconds, followed by the addition of 5 µL of each drug solution, after which fluorescence was measured continuously for 250 seconds. […]

Eg.TRPMPZQ = Eg.TRPMPZQ (Echinococcus granulosus, UniProt W6UVV9); test: cell-based; settings: HEK293, Ca2+ reporter, mean ± standard deviation; for Emax: read-out: Bmax, Eg.TRPMPZQ activation
Sequence of Eg.TRPMPZQ (W6UVV9 entry or part of it): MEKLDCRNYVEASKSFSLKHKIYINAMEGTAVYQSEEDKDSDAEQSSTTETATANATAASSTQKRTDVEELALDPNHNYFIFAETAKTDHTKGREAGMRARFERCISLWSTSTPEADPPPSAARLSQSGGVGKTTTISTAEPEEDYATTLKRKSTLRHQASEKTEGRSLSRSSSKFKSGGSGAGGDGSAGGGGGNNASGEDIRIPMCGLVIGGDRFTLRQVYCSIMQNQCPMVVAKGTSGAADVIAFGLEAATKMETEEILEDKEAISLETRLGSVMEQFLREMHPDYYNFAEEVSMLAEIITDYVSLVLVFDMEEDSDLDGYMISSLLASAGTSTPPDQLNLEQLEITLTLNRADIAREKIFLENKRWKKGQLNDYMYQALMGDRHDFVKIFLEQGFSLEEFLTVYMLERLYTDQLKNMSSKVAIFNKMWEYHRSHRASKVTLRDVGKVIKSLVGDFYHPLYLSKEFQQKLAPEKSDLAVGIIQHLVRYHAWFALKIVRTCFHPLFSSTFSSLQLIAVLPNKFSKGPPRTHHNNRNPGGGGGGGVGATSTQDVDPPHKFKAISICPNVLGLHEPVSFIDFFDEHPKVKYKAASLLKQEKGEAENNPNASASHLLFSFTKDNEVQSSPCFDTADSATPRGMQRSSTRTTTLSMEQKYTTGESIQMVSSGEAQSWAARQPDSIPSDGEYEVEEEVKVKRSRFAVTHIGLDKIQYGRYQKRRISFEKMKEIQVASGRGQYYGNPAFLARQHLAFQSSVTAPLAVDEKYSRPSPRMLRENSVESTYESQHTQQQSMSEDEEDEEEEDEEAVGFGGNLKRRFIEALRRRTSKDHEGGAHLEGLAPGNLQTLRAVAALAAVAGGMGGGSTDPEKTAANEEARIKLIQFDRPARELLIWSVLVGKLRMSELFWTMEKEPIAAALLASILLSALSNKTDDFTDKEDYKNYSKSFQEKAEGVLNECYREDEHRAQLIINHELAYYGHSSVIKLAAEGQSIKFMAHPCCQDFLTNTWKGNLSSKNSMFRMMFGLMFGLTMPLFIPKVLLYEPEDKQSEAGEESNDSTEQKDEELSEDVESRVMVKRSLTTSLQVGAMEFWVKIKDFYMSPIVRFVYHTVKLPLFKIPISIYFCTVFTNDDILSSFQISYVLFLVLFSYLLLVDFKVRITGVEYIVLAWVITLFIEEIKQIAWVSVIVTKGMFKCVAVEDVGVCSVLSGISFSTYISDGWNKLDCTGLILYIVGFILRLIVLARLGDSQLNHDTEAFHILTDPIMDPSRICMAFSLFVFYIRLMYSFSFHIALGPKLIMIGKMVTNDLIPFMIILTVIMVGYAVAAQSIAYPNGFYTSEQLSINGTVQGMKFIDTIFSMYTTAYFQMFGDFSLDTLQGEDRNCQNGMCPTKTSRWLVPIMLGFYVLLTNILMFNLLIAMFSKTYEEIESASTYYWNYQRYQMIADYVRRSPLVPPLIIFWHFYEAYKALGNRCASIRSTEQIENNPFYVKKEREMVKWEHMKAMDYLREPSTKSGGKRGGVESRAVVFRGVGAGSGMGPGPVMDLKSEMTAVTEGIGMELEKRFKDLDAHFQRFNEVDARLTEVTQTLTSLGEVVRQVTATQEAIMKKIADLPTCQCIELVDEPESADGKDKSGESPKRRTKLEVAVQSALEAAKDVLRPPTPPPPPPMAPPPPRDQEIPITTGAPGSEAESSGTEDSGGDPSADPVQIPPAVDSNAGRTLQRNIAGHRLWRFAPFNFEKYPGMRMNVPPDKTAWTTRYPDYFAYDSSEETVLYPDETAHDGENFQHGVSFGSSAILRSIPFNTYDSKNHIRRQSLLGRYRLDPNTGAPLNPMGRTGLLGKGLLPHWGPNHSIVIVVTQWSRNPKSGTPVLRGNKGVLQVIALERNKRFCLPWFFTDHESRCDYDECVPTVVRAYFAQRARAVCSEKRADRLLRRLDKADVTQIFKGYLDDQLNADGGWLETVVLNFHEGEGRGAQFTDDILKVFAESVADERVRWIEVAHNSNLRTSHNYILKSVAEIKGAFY

Sm.TRPMPZQ = test: Ca2+ reporter assay in antagonist mode (block of PZQ activation of Sm.TRPMPZQ); type: cell-based, Schistosoma mansoni; settings: preincubation 1 nM-100 μM for 10 min, data not shown
Procedure: The Ca^2+ reporter assay was performed using a Fluorescence Imaging Plate Reader (FLIPR) system, as described in the Supporting Information.
as §1, §2, §3, §4, §12, §13, §14, §15, §16
(§18) buffer containing 2.5 mM probenecid in HBSS (with Ca²⁺ and Mg²⁺), 20 mM HEPES, 0.3% BSA (Sigma, A7030), and 0.03% L-ascorbic acid (Sigma). Cells were incubated for 40 minutes at 37 °C and subsequently for 20 minutes at room temperature. A total of seven PZQ derivatives were tested, using racemic PZQ included as a positive control on each assay plate. Drug dilutions were prepared in assay buffer without dye and probenecid and dispensed into separate flat-bottom 384-well plates. Calcium flux measurements were performed at room temperature using a […]
as §17
schistosomula after 72h of incubation using the Roboworm high-content screening assay. Auranofin (AUR) was included at 10 µM as positive control. DMSO was included as a negative control. Compounds were considered hits if both their motility and phenotype scores were lower than -0.35 and -0.15, respectively (region delimited by the […]
(1 picture or pasted object on this page, not shown here)

juvenile schistosomes = test: Microscopy analysis of juvenile morphology and motility (viability score 0-3); settings: 10 μM, 72 h; for number of juvenile worms with viability score 0 / number of juvenile worms with viability score 1 / number of juvenile worms with viability score 2 / number of juvenile worms with viability score 3: Table S1
Fh.TRPMPZQ = test: Ca2+ reporter (FLIPR) activation assay, Fh.TRPMPZQ in HEK293 cells; type: cell-based, Fasciola hepatica; settings: at the tested concentrations, data not shown
Procedure: (§19) Finally, selectivity for Sm.TRPMPZQ was assessed by profiling responses on the F. hepatica (Fh.TRPMPZQ) and E. granulosus (Eg.TRPMPZQ) TRPMPZQ orthologs, as well as the schistosome TRPM paralog Sm.TRPMMCLZ, a distinct TRPM channel activated by meclonazepam. Meclonazepam is an anthelmintic benzodiazepine known for its toxicity to juvenile schistosome worms.
as §11, §3, §4, §12, §13, §14, §15, §16, §18, §17

Sm.TRPMMCLZ = test: Ca2+ reporter (FLIPR) activation assay, Sm.TRPMMCLZ in HEK293 cells; type: cell-based, Schistosoma mansoni; settings: at the tested concentrations, data not shown
Procedure: as §19, §11, §3, §4, §12, §13, §14, §15, §16, §18, §17

[4] = Schistosoma mansoni, 24 h, male adult worms, 24 h, single experiment or geometric mean, read-out: Male worm motility inhibition (EC50)
[5] = Schistosoma mansoni, 48 h, male adult worms, 48 h, single experiment or geometric mean, read-out: Male worm motility inhibition (EC50)
[6] = Schistosoma mansoni, 72 h, male adult worms, 72 h, single experiment or geometric mean, read-out: Male worm motility inhibition (EC50)

O=C(C1CCCCC1)N1CC(=O)N2CCc3ccc(-n4cc(COc5ccccc5)nn4)cc3C2C1 (stereo not shown) [Compound 5c]
hit classification (motility and phenotype scores) (S. mansoni schistosomula): borderline
parasite metabolic activity compared to the DMSO control group (XTT) [1]: no statistically significant differences
EC50 ([2]; Schistosoma mansoni, 0 h, male adult worms, 0 h (immediately after addition), single experiment or geometric mean, read-out: Male worm motility inhibition (EC50)): > 100 µM
EC50 [2, 4]: > 100 µM
EC50 [2, 5]: > 100 µM
EC50 [2, 6]: > 100 µM
CC50 at 48 h (in vitro): 88.1 µM
Selectivity Index (CC50/EC50), Male [3]: <0.9
Selectivity Index (SI), sex not specified ([3]; HepG2 vs adult worms, 48 h): < 1
Bmax, wild-type Sm.TRPMPZQ activation (Sm.TRPMPZQ (wild-type)): No activity
EC50 for wild-type Sm.TRPMPZQ activation (Sm.TRPMPZQ (wild-type); 0.001 to 100 μM): failed to activate; also recorded: No activity
EC50 for Eg.TRPMPZQ activation (Eg.TRPMPZQ): No signal
Emax (Eg.TRPMPZQ): 7.63 ± 0.72%
block of PZQ activation of Sm.TRPMPZQ (antagonist mode) (Sm.TRPMPZQ): failed to impact subsequent responses to PZQ
activity against juvenile schistosomes (grouped score analysis) (juvenile schistosomes): lacks activity
number of juvenile worms with viability score 0 (juvenile schistosomes): 19
number of juvenile worms with viability score 1 (juvenile schistosomes): 1
number of juvenile worms with viability score 2 (juvenile schistosomes): 4
number of juvenile worms with viability score 3 (juvenile schistosomes): 72

Nc1ccc2c(c1)C1CN(C(=O)C3CCCCC3)CC(=O)N1CC2 (stereo not shown) [Compound 3, 9-NH2–PZQ]
parasite metabolic activity compared to the DMSO control group (XTT) [1]: significantly decreased
EC50 ([2]; Schistosoma mansoni, 0 h, female adult worms, 0 h (immediately after addition), single experiment or geometric mean, read-out: Female worm motility inhibition (EC50)): 8.36 µM
EC50 ([2]; Schistosoma mansoni, 24 h, female adult worms, 24 h, single experiment or geometric mean, read-out: Female worm motility inhibition (EC50)): 9.6 µM
EC50 ([2]; Schistosoma mansoni, 24 h, female, 24 h, individual experiments, read-out: Female worm motility inhibition (EC50), values of independent experiments): 9.04 µM
EC50 [2, 4]: 5.4 µM
EC50 ([2]; Schistosoma mansoni, 48 h, female adult worms, 48 h, single experiment or geometric mean, read-out: Female worm motility inhibition (EC50)): 9.9 µM
EC50 ([2]; Schistosoma mansoni, 48 h, female, 48 h, individual experiments, read-out: Female worm motility inhibition (EC50), values of independent experiments): 9.36 µM
EC50 [2, 5]: 4.5 µM
EC50 ([2]; Schistosoma mansoni, 48 h, male, 48 h, individual experiments, read-out: Male worm motility inhibition (EC50), values of independent experiments): 3.94 µM
EC50 ([2]; Schistosoma mansoni, 72 h, female adult worms, 72 h, single experiment or geometric mean, read-out: Female worm motility inhibition (EC50)): 11.2 µM
EC50 ([2]; Schistosoma mansoni, 72 h, female, 72 h, individual experiments, read-out: Female worm motility inhibition (EC50), values of independent experiments): 8.77 µM
EC50 [2, 6]: 3.5 µM
EC50 ([2]; Schistosoma mansoni, 72 h, male, 72 h, individual experiments, read-out: Male worm motility inhibition (EC50), values of independent experiments): 3.8 µM
EC50 ([2]; female adult worms, 72 h, single experiment or geometric mean, read-out: Female worm motility inhibition (EC50)): 11 µM
EC50 ([2]; female, 24 h, individual experiments, read-out: Female worm motility inhibition (EC50), values of independent experiments): 10.2 µM
EC50 ([2]; female, 48 h, individual experiments, read-out: Female worm motility inhibition (EC50), values of independent experiments): 10.5 µM
EC50 ([2]; female, 72 h, individual experiments, read-out: Female worm motility inhibition (EC50), values of independent experiments): 14.3 µM
EC50 ([2]; male, 24 h, individual experiments, read-out: Male worm motility inhibition (EC50), values of independent experiments): 8.1 µM and 5.61 µM and 3.44 µM
EC50 ([2]; male, 48 h, individual experiments, read-out: Male worm motility inhibition (EC50), values of independent experiments): 4.56 µM
EC50 ([2]; male, 72 h, individual experiments, read-out: Male worm motility inhibition (EC50), values of independent experiments): 3.29 µM and 3.58 µM
CC50 at 48 h (in vitro): ~300 µM
Selectivity Index (CC50/EC50), Female ([3]; HepG2 CC50 / female worm motility EC50, 48 h): >30
Selectivity Index (CC50/EC50), Male [3]: >67
CC50 ([3]; human, 48 h): > 300 µM
EC50 (Sm.TRPMPZQ (wild-type); 0.001 to 100 μM): 7.09 ± 0.18 µM
Emax (Sm.TRPMPZQ (wild-type); read-out: Bmax, wild-type Sm.TRPMPZQ activation): 90 ± 1.31%
Emax (Eg.TRPMPZQ): 138 ± 13.2%
activation of Fh.TRPMPZQ (Fh.TRPMPZQ): did not activate
activation of Sm.TRPMMCLZ (Sm.TRPMMCLZ): did not activate
number of juvenile worms with viability score 0 (juvenile schistosomes): 38
number of juvenile worms with viability score 1 (juvenile schistosomes): 2
number of juvenile worms with viability score 2 (juvenile schistosomes): 14
number of juvenile worms with viability score 3 (juvenile schistosomes): 38
